Experimental data taken from patent publication US20250230193A1, “CYCLIC COMPOUND HAVING SELECTIVE KRAS INHIBITORY EFFECT ON HRAS AND NRAS” (CHUGAI SEIYAKU KABUSHIKI KAISHA, priority 2022, published 2025).

Columns and labels:
[1] = biological target: GDP-bound NRAS wild-type protein (Homo sapiens, UniProt P01111); experiment: Binding to NRAS by surface plasmon resonance (SPR), Single Cycle Kinetics; settings: KD ratio NRAS/KRAS, class symbols
[2] = biological target: GDP-bound HRAS wild-type protein (Homo sapiens, UniProt P01112); experiment: Binding to HRAS by surface plasmon resonance (SPR), Single Cycle Kinetics; settings: KD ratio HRAS/KRAS, class symbols
Sequence of GDP-bound HRAS wild-type protein (P01112 whole entry): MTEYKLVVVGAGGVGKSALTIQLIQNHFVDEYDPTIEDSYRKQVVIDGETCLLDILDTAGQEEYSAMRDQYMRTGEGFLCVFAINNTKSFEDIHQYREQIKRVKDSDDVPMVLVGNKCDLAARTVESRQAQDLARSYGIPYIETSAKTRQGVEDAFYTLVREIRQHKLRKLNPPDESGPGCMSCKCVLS

Sequence of GDP-bound NRAS wild-type protein (P01111 whole entry): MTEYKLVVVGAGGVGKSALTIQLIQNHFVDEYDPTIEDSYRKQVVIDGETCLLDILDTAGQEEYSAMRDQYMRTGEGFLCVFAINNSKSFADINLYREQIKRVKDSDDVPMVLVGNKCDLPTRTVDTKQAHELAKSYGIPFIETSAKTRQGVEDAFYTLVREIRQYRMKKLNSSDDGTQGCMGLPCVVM

SMILES | NRAS/KRAS (ratio of KD value with respect to GDP-bound NRAS wild-type protein to KD value with respect to KRAS) [1] | HRAS/KRAS (ratio of KD value with respect to GDP-bound HRAS wild-type protein to KD value with respect to KRAS) [2]
CCC[C@H]1C(=O)N[C@@H]([C@@H](C)CC)C(=O)N(C)CC(=O)N(C)[C@H]2C/C=C\CCN(C2=O)[C@@H](Cc2ccc(C(F)(F)F)cc2)C(=O)N(C)CC(=O)N[C@@H](CCc2ccc(Cl)c(Cl)c2)C(=O)N2C[C@H](OCC)C[C@H]2C(=O)NC2(CC(C)(C)C2)C(=O)N(C)[C@@H](CC2CCC2)C(=O)N(C)[C@H](C(=O)N(C)C)CC(=O)N1C [PP2766] | A (a compound having 10 or more and less than 20 is denoted as A) | A (a compound having 10 or more and less than 20 is denoted as A)
CCOC[C@H]1C(=O)N[C@@H]([C@@H](C)CC)C(=O)N(C)CC(=O)N(C)[C@H]2C/C=C\CCN(C2=O)[C@@H](Cc2ccc(C(F)(F)F)cc2)C(=O)N(C)CC(=O)N[C@@H](CCc2ccc(Cl)c(Cl)c2)C(=O)N2C[C@H](OCC)C[C@H]2C(=O)NC2(CC(C)(C)C2)C(=O)N(C)[C@@H](CC2CCC2)C(=O)N(C)[C@H](C(=O)N(C)C)CC(=O)N1C [PP2767] | A (a compound having 10 or more and less than 20 is denoted as A) | A (a compound having 10 or more and less than 20 is denoted as A)
CCC[C@H]1C(=O)N[C@@H]([C@@H](C)CC)C(=O)N(C2CC2)CC(=O)N(C)[C@H]2C/C=C\CCN(C2=O)[C@@H](Cc2ccc(C(F)(F)F)cc2)C(=O)N(C)CC(=O)N[C@@H](CCc2cc(F)c(C(F)(F)F)c(F)c2)C(=O)N2C[C@H](OCC)C[C@H]2C(=O)NC2(CC(C)(C)C2)C(=O)N(C)[C@@H](CC2CCC2)C(=O)N(C)[C@H](C(=O)N(C)C)CC(=O)N1C [PP2768] | A (a compound having 10 or more and less than 20 is denoted as A) | A (a compound having 10 or more and less than 20 is denoted as A)
CCO[C@@H]1C[C@H]2C(=O)NC3(CC(C)(C)C3)C(=O)N(C)[C@@H](CC3CCC3)C(=O)N(C)[C@H](C(=O)N(C)C)CC(=O)N(C)[C@@H](COC)C(=O)N[C@@H]([C@@H](C)CC)C(=O)N(C3CC3)CC(=O)N(C)[C@H]3C/C=C\CCN(C3=O)[C@@H](Cc3ccc(C(F)(F)F)cc3)C(=O)N(C)CC(=O)N[C@@H](CCc3cc(F)c(C(F)(F)F)c(F)c3)C(=O)N2C1 [PP2769] | AA (a compound having 20 or more is denoted as AA) | A (a compound having 10 or more and less than 20 is denoted as A)
CCC[C@H]1C(=O)N[C@@H]([C@@H](C)CC)C(=O)N(C2CC2)CC(=O)N(C)[C@H]2C/C=C\CCN(C2=O)[C@@H](Cc2ccc(C(F)(F)F)cc2)C(=O)N(C)CC(=O)N[C@@H](CCc2ccc(C(F)(F)F)c(OC)c2)C(=O)N2C[C@H](OCC)C[C@H]2C(=O)NC2(CC(C)(C)C2)C(=O)N(C)[C@@H](CC2CCC2)C(=O)N(C)[C@H](C(=O)N(C)C)CC(=O)N1C [PP2770] | A (a compound having 10 or more and less than 20 is denoted as A) | A (a compound having 10 or more and less than 20 is denoted as A)
CCO[C@@H]1C[C@H]2C(=O)NC3(CC(C)(C)C3)C(=O)N(C)[C@@H](CC3CCC3)C(=O)N(C)[C@H](C(=O)N(C)C)CC(=O)N(C)[C@@H](COC)C(=O)N[C@@H]([C@@H](C)CC)C(=O)N(C3CC3)CC(=O)N(C)[C@H]3C/C=C\CCN(C3=O)[C@@H](Cc3ccc(C(F)(F)F)cc3)C(=O)N(C)CC(=O)N[C@@H](CCc3ccc(C(F)(F)F)c(OC)c3)C(=O)N2C1 [PP2771] | AA (a compound having 20 or more is denoted as AA) | A (a compound having 10 or more and less than 20 is denoted as A)
CCO[C@@H]1C[C@H]2C(=O)NC3(CCC3)C(=O)N(C)[C@@H](CC(C)(C)C)C(=O)N(C)[C@H](C(=O)N3CCCC3)CC(=O)N(C)[C@@H](CC)C(=O)N[C@@H]([C@@H](C)CC)C(=O)N(C)CC(=O)N(C)[C@H]3C/C=C\CCN(C3=O)[C@@H](CC3CCCCC3)C(=O)N(C)CC(=O)N[C@@H](CCc3cc(F)c(C(F)(F)F)c(F)c3)C(=O)N2C1 [PP2772] | B (a compound having 3 or more and less than 10 is denoted as B) | B (a compound having 3 or more and less than 10 is denoted as B)
CCO[C@@H]1C[C@H]2C(=O)NC3(CC(C)(C)C3)C(=O)N(C)[C@@H](CC(C)(C)C)C(=O)N(C)[C@H](C(=O)N(C)C)CC(=O)N(C)[C@@H](C(C)C)C(=O)N[C@@H]([C@@H](C)CC)C(=O)N(C)CC(=O)N(C)[C@H]3C/C=C\CCN(C3=O)[C@@H](Cc3ccc(C(F)(F)F)cc3)C(=O)N(C)CC(=O)N[C@@H](CCc3ccc(C(F)(F)F)c(OC)c3)C(=O)N2C1 [PP2773] | B (a compound having 3 or more and less than 10 is denoted as B) | B (a compound having 3 or more and less than 10 is denoted as B)
CCC[C@H]1C(=O)N[C@@H]([C@@H](C)CC)C(=O)N(C)CC(=O)N(C)[C@H]2C/C=C\CCN(C2=O)[C@@H](Cc2ccc(C(F)(F)F)cc2)C(=O)N(C)CC(=O)N[C@@H](CCc2ccc(CC)c(Cl)c2)C(=O)N2C[C@H](OCC)C[C@H]2C(=O)NC2(CC(C)(C)C2)C(=O)N(C)[C@@H](C(CC)CC)C(=O)N(C)[C@H](C(=O)N(C)C)CC(=O)N1C [PP2777] | AA (a compound having 20 or more is denoted as AA) | A (a compound having 10 or more and less than 20 is denoted as A)
CCC[C@H]1C(=O)N[C@@H]([C@@H](C)CC)C(=O)N(C)CC(=O)N(C)[C@H]2C/C=C\CCN(C2=O)[C@@H](Cc2ccc(C)cc2)C(=O)N(C)CC(=O)N[C@@H](CCc2ccc(CC)c(Cl)c2)C(=O)N2C[C@H](OCC)C[C@H]2C(=O)NC2(CC(C)(C)C2)C(=O)N(C)[C@@H](C2CCCC2)C(=O)N(C)[C@H](C(=O)N(C)C)CC(=O)N1C [PP2778] | A (a compound having 10 or more and less than 20 is denoted as A) | A (a compound having 10 or more and less than 20 is denoted as A)
CCC[C@H]1C(=O)N[C@@H]([C@@H](C)CC)C(=O)N(C)CC(=O)N(C)[C@H]2C/C=C\CCN(C2=O)[C@@H](Cc2ccc(C)cc2)C(=O)N(C)CC(=O)N[C@@H](CCc2ccc(CC)c(Cl)c2)C(=O)N2C[C@H](OCC)C[C@H]2C(=O)NC2(CC(C)(C)C2)C(=O)N(C)[C@@H](C(CC)CC)C(=O)N(C)[C@H](C(=O)N(C)C)CC(=O)N1C [PP2779] | A (a compound having 10 or more and less than 20 is denoted as A) | A (a compound having 10 or more and less than 20 is denoted as A)
CCC[C@H]1C(=O)N[C@@H]([C@@H](C)CC)C(=O)N(C)CC(=O)N(C)[C@H]2C/C=C\CCN(C2=O)[C@@H](Cc2ccc(C(F)(F)F)cc2)C(=O)N(C)CC(=O)N[C@@H](CCc2cc(F)c(C(F)F)c(F)c2)C(=O)N2C[C@H](OCC)C[C@H]2C(=O)NC2(CC(C)(C)C2)C(=O)N(C)[C@@H](C2CCCC2)C(=O)N(C)[C@H](C(=O)N(C)C)CC(=O)N1C [PP2780] | A (a compound having 10 or more and less than 20 is denoted as A) | A (a compound having 10 or more and less than 20 is denoted as A)
CCC[C@H]1C(=O)N[C@@H]([C@@H](C)CC)C(=O)N(C)CC(=O)N(C)[C@H]2C/C=C\CCN(C2=O)[C@@H](Cc2ccc(C(F)(F)F)cc2)C(=O)N(C)CC(=O)N[C@@H](CCc2cc(F)c(C(F)F)c(F)c2)C(=O)N2C[C@H](OCC)C[C@H]2C(=O)NC2(CC(C)(C)C2)C(=O)N(C)[C@@H](C(CC)CC)C(=O)N(C)[C@H](C(=O)N(C)C)CC(=O)N1C [PP2781] | AA (a compound having 20 or more is denoted as AA) | A (a compound having 10 or more and less than 20 is denoted as A)
CCC[C@H]1C(=O)N[C@@H]([C@@H](C)CC)C(=O)N(C)CC(=O)N(C)[C@H]2C/C=C\CCN(C2=O)[C@@H](Cc2ccc(C)cc2)C(=O)N(C)CC(=O)N[C@@H](CCc2cc(F)c(C(F)F)c(F)c2)C(=O)N2C[C@H](OCC)C[C@H]2C(=O)NC2(CC(C)(C)C2)C(=O)N(C)[C@@H](C2CCCC2)C(=O)N(C)[C@H](C(=O)N(C)C)CC(=O)N1C [PP2782] | A (a compound having 10 or more and less than 20 is denoted as A) | A (a compound having 10 or more and less than 20 is denoted as A)
CCC[C@H]1C(=O)N[C@@H]([C@@H](C)CC)C(=O)N(C)CC(=O)N(C)[C@H]2C/C=C\CCN(C2=O)[C@@H](Cc2ccc(C(F)(F)F)cc2)C(=O)N(C)CC(=O)N[C@@H](CCc2ccc(Cl)c(C(F)(F)F)c2)C(=O)N2C[C@H](OCC)C[C@H]2C(=O)NC2(CC(C)(C)C2)C(=O)N(C)[C@@H](C2CCCC2)C(=O)N(C)[C@H](C(=O)N(C)C)CC(=O)N1C [PP2784] | A (a compound having 10 or more and less than 20 is denoted as A) | A (a compound having 10 or more and less than 20 is denoted as A)
CCC[C@H]1C(=O)N[C@@H]([C@@H](C)CC)C(=O)N(C)CC(=O)N(C)[C@H]2C/C=C\CCN(C2=O)[C@@H](Cc2ccc(C(F)(F)F)cc2)C(=O)N(C)CC(=O)N[C@@H](CCc2ccc(Cl)c(C(F)(F)F)c2)C(=O)N2C[C@H](OCC)C[C@H]2C(=O)NC2(CC(C)(C)C2)C(=O)N(C)[C@@H](C(CC)CC)C(=O)N(C)[C@H](C(=O)N(C)C)CC(=O)N1C [PP2785] | AA (a compound having 20 or more is denoted as AA) | A (a compound having 10 or more and less than 20 is denoted as A)
